Results on 15 compounds are retold here after ChEMBL document CHEMBL3991601, “The target landscape of clinical kinase drugs” (Science, 2017).

Test [1] has as its target MAP/microtubule affinity-regulating kinase 3 (Homo sapiens, UniProt P27448).
In test [2] the target is TRAF2 and NCK-interacting protein kinase (Homo sapiens, UniProt Q9UKE5).
In test [3] the target is T1, Membrane-associated tyrosine- and threonine-specific cdc2-inhibitory kinase (Homo sapiens, UniProt Q99640).
T1 sequence (Q99640 whole entry): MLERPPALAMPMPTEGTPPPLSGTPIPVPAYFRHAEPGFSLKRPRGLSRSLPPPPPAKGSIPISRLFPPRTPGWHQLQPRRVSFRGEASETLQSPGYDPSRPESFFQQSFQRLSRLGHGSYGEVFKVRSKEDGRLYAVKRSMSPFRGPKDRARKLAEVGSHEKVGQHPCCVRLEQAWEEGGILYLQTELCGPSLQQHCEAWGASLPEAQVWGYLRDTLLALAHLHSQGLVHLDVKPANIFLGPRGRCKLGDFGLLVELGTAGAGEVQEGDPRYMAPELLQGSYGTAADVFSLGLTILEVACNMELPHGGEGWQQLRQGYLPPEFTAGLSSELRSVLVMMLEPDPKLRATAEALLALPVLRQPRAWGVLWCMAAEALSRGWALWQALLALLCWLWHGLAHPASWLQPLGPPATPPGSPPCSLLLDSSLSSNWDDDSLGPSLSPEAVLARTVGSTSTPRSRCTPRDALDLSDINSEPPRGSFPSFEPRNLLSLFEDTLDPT

Test [4] addresses T2, Structural maintenance of chromosomes protein 1A (Homo sapiens, UniProt Q14683).
T2 sequence (Q14683 whole entry): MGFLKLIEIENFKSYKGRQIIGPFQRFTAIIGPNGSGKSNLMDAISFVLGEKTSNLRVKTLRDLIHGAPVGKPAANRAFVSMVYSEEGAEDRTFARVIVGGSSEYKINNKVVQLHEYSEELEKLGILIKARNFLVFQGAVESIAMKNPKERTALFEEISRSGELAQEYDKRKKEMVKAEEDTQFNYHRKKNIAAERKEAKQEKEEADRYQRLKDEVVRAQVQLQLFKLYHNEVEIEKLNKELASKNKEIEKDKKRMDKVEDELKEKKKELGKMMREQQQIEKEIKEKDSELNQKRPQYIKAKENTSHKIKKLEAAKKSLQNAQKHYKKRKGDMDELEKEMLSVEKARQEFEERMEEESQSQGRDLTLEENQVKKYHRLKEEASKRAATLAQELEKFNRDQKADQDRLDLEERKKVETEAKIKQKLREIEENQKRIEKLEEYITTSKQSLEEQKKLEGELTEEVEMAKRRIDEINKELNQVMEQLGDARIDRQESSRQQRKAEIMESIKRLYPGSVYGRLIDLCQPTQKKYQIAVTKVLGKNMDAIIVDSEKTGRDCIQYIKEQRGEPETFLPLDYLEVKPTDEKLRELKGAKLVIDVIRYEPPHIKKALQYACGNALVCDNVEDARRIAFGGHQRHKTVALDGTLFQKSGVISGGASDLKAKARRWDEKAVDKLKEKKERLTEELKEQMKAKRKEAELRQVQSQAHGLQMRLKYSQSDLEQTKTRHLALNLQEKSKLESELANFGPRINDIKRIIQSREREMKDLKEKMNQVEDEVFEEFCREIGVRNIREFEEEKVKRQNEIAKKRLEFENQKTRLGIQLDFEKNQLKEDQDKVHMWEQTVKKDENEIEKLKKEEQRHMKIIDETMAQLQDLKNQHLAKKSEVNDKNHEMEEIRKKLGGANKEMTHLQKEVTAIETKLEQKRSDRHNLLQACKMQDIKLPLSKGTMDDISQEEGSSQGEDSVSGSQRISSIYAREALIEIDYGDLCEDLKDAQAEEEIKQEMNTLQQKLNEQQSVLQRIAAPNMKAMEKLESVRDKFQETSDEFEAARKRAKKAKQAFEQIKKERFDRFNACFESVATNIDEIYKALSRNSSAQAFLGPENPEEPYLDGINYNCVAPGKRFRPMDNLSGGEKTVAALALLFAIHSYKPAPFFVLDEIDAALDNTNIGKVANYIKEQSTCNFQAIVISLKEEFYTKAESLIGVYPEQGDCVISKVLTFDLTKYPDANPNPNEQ

The target of test [5] is T3, Non-receptor tyrosine-protein kinase TNK1 (Homo sapiens, UniProt Q13470).
T3 sequence (Q13470 whole entry): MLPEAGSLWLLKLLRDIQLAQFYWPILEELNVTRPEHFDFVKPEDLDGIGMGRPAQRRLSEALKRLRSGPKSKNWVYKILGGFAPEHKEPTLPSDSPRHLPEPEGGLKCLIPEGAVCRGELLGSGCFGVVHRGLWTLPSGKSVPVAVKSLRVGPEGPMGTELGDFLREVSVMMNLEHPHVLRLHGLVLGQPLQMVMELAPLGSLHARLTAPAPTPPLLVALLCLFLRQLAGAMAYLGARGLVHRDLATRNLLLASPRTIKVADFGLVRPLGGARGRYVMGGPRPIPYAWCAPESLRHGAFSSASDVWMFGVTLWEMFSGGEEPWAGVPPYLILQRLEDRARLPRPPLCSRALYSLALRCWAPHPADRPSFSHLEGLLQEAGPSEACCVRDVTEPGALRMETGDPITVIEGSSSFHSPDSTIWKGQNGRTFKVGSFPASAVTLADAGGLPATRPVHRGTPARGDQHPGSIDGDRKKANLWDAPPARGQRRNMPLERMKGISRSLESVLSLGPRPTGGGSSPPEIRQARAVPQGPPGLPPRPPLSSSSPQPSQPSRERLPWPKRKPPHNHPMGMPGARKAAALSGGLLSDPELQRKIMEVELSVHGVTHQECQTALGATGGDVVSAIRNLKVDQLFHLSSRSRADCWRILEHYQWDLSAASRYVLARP

Test [6] addresses T4, Serine/threonine-protein kinase ULK3 (Homo sapiens, UniProt Q6PHR2).
T4 sequence (Q6PHR2 whole entry): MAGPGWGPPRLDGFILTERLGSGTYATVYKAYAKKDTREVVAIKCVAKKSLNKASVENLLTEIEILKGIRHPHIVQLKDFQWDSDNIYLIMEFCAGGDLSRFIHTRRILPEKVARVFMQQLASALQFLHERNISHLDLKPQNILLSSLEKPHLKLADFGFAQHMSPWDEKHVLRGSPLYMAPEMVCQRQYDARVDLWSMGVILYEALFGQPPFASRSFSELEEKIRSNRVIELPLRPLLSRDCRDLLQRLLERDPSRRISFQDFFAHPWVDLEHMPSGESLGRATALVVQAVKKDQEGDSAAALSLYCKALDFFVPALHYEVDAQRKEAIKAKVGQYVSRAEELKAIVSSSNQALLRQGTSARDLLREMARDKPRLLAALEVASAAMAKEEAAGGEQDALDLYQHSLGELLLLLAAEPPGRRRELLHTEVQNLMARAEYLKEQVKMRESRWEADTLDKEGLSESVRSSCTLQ

Activity calls are given as the source filed them. Rule as the data show it, for most assays here: actives have a measured Kd and inactives only a lower limit.
Also: in the data inactive means no Kd found up to 30 µM.

Sequence of MAP/microtubule affinity-regulating kinase 3 (P27448 whole entry): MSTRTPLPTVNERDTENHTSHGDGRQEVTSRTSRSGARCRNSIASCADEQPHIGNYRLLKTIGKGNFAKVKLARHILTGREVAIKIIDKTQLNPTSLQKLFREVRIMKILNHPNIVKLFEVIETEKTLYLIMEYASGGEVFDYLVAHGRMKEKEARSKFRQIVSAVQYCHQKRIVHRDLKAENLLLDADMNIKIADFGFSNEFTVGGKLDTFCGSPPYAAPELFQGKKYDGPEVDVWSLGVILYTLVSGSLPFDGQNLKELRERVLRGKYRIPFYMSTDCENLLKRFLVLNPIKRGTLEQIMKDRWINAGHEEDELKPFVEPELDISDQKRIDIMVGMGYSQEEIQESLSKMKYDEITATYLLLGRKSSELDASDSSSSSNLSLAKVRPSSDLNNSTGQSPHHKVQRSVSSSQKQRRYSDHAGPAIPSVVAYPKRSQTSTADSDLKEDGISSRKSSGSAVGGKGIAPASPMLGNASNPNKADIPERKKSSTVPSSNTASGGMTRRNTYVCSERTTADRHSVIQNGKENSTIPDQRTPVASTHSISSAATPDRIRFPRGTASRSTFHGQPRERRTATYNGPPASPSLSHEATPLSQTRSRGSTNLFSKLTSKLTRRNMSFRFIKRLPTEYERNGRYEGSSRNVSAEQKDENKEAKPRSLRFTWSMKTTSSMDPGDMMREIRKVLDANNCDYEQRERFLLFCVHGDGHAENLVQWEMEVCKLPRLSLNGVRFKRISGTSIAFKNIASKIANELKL
Sequence of TRAF2 and NCK-interacting protein kinase (Q9UKE5 whole entry): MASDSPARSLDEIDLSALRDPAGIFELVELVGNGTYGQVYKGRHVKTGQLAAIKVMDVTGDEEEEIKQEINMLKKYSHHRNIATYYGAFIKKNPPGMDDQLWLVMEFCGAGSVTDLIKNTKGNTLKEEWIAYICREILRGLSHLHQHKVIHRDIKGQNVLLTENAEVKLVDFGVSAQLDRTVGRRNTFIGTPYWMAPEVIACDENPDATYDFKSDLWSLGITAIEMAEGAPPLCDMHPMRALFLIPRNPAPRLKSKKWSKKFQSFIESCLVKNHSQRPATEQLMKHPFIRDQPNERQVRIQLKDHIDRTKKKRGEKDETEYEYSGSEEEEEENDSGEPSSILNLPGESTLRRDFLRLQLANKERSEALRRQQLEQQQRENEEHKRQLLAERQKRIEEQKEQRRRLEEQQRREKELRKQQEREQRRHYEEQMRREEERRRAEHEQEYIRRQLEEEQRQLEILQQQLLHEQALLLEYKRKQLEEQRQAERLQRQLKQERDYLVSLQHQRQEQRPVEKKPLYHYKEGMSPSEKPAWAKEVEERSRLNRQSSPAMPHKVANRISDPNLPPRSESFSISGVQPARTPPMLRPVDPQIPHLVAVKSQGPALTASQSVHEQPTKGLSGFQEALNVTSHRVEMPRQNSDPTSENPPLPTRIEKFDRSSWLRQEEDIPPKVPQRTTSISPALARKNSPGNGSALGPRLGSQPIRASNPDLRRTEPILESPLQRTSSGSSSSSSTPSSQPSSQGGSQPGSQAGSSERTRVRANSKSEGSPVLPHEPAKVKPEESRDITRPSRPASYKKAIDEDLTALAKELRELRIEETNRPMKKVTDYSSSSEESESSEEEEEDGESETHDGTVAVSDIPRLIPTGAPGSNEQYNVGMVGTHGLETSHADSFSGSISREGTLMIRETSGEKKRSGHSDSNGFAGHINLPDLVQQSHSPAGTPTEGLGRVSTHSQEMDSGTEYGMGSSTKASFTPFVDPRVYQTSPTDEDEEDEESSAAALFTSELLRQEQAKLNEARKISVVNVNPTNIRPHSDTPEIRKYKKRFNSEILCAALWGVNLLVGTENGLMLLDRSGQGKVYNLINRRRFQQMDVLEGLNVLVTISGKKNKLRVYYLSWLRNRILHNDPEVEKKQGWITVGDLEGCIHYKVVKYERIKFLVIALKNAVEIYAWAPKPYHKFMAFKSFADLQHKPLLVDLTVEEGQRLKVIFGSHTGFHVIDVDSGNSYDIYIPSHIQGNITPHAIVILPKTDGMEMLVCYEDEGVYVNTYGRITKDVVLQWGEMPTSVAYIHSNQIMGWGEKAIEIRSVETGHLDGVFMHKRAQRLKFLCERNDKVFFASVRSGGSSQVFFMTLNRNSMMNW

By Kd is commonly meant a measure of binding affinity in units of concentration. As to `Cc1cc(C(=O)Nc2cc(Oc3ccc4nc(NC(=O)C5CC5)cn4n3)ccc2C)n(C)n1` [TAK-593], the Kd in test [1], in test [2], in test [3], in test [4], in test [5] and in test [6] was > 30 µM (inactive) in each case.

As for `O=C(O)c1ccc2c(c1)nc(Nc1cccc(Cl)c1)c1ccncc12` [SILMITASERTIB], the Kd in test [1], in test [2], in test [3], in test [4], in test [5] and in test [6] was > 30 µM (inactive) each time.

As to `O=S(=O)(c1cccc2c(O)nccc12)N1CCCNCC1` [HYDROXYFASUDIL], the Kd in test [1], in test [2], in test [3], in test [4], in test [5] and in test [6] was > 30 µM (inactive) each time.

As for `CCN1CCN(Cc2ccc(Nc3ncc(F)c(-c4cc(F)c5nc(C)n(C(C)C)c5c4)n3)nc2)CC1` [ABEMACICLIB], the Kd in test [1], in test [2], in test [3], in test [4], in test [5] and in test [6] was > 30 µM (inactive) throughout.

For `C=CC(=O)Nc1cccc(Nc2nc(Nc3ccc(N4CCN(C(C)=O)CC4)cc3OC)ncc2C(F)(F)F)c1` [ROCILETINIB], the Kd is > 30 µM (inactive) in test [1]; > 30 µM (inactive) in test [2]; > 30 µM (inactive) in test [3]; > 30 µM (inactive) in test [4]; 0.289 µM (active) in test [5]; > 30 µM (inactive) in test [6].

`Cc1c(Cn2c(C)nc3c(C(=O)O)cc(N4CCOCC4)cc32)cccc1C(F)(F)F` [GSK-2636771]: the Kd in test [1], in test [2], in test [3], in test [4], in test [5] and in test [6] was > 30 µM (inactive) each time.

For `COc1cc2ncnc(Nc3ccc(O)cc3)c2cc1OC` [WHI-P131], the Kd in test [1], in test [2], in test [3], in test [4], in test [5] and in test [6] was > 30 µM (inactive) each time.

As to `Cn1c(=O)c(F)c(Nc2ccc(I)cc2F)c2c(=O)n(C[C@@H](O)CO)cnc21` [TAK-733], the Kd in test [1], in test [2], in test [3], in test [4], in test [5] and in test [6] was > 30 µM (inactive) throughout.

Take `COc1cccc(Nc2ncnn3ccc(CN4CC[C@@H](N)[C@H](O)C4)c23)c1` [BMS-690514]: the Kd was 1.7 µM (active) in test [1]; > 30 µM (inactive) in test [2]; 1.85 µM (active) in test [3]; > 30 µM (inactive) in test [4]; > 30 µM (inactive) in test [5]; > 30 µM (inactive) in test [6].

For the compound `S=C(NCc1ccc2c(c1)OCO2)N1CCN(c2ncnc3c2oc2ccccc23)CC1` [AMUVATINIB], the Kd in test [1], in test [2], in test [3], in test [4], in test [5] and in test [6] was > 30 µM (inactive) each time.

Take `C=CC(=O)Nc1cc(Nc2nccc(-c3cn(C)c4ccccc34)n2)c(OC)cc1N(C)CCN(C)C` [OSIMERTINIB]: the Kd in test [1], in test [2], in test [3], in test [4], in test [5] and in test [6] was > 30 µM (inactive) in each case.

With `Cn1cc(-c2[nH]c3cc(NC(=O)[C@H](N)C4CCCCC4)cc4c3c2C=NNC4=O)cn1`, the Kd in test [1] was 0.387 µM (active); in test [2] it was 0.251 µM; in test [3], > 30 µM (inactive); in test [4], > 30 µM (inactive); in test [5], > 30 µM (inactive); in test [6], 1.17 µM (active).

In the case of `COCCN1CCN(Cc2ccc(-c3n[nH]c4c3C(=O)c3c(NC(=O)NN5CCOCC5)cccc3-4)cc2)CC1` [RGB-286638], the Kd in test [1], in test [2], in test [3], in test [4], in test [5] and in test [6] was > 30 µM (inactive) each time.

Turning to `CC(C)(O)CC(=O)NCCn1ccc2ncnc(Nc3ccc(Oc4cccc(C(F)(F)F)c4)c(Cl)c3)c21` [TAK-285], the Kd in test [1], in test [2], in test [3], in test [4], in test [5] and in test [6] was > 30 µM (inactive) each time.

As for `C[C@@H]1COC(Nc2ccc3ncnc(Nc4ccc(OCc5nccs5)c(Cl)c4)c3c2)=N1` [VARLITINIB], the Kd in test [1], in test [2], in test [3], in test [4], in test [5] and in test [6] was > 30 µM (inactive) each time.
